Data from article PMC6770581, “New Thalidomide-Resembling Dicarboximides Target ABC50 Protein and Show Antileukemic and Immunomodulatory Activities” (Biomolecules, 2019).
Like-named read-outs stand apart in the source and are kept apart here.

Columns and labels:
[1] = tested on: HeLa cells; assay: MTT cytotoxicity assay, HeLa; assay type: cell-based; details: Homo sapiens, 48 h, mean ± SD
Procedure: (§1) Human umbilical vein endothelial cells (purchased from Life Technologies, Carlsbad, CA, USA) were cultured according to the manufacturer’s instructions in Medium 200 supplemented with Low Serum Growth Supplement. 1 × 10^4 cells were seeded on each well on a 96-well plate (Nunc, Roskilde, Denmark). The HeLa (human cervix carcinoma, cat. #93021013), CFPAC (human pancreatic adenocarcinoma, cat. #91112501), K562 (chronic myelogenous leukemia, cat. #89121407), HL-60 (acute myelogenous leukemia, cat. #98070106), and MOLT-4 (Human acute T lymphoblastic leukemia, cat. #85011413) cells were purchased from European Collection of Authenticated Cell Cultures (ECACC). They were cultured in an RPMI 1640 medium supplemented with antibiotics (streptomycin, penicillin) and 10% fetal calf serum (20% for HL60), in a 5% CO2-95% air atmosphere. 7 × 10^3 cells were seeded on each well on a 96-well plate (Nunc). 24 hours later the cells were exposed to the test compounds. The aliquots of stock solutions of the test compounds (freshly prepared in DMSO) were added to the cell cultures to yield final concentrations of 1, 10^−1, 10^−2, 10^−3, 10^−4, and 10^−5 mM. The concentration of DMSO in the cell culture medium was 1%. The IC50 value (the concentration of a test compound required to reduce the cell survival fraction to 50% of the control) was calculated from a dose-response curve and used as a measure of cellular sensitivity to a given treatment. The IC50 values are given as means (± standard deviation (SD)) from 2 independent experiments with 4 technical replicates. The cytotoxicity of all compounds was determined by the MTT (3-(4,5-dimethylthiazol-2-yl)-2,5-diphenyltetrazolium bromide) assay (Sigma, St. Louis, MO, USA). Briefly, after 24 h or 48 h of incubation with a given compound, the cells were treated with the MTT reagent and incubation was continued for 2 h. MTT-formazan crystals were dissolved in 20% SDS and 50% DMF at pH 4.7 and VIS light absorption was measured at 570 and 650 nm on a microplate reader FLUOstar Omega (BMG Labtech, Offenburg, Germany). As a control (100% viability), cells grown in the presence of 1% DMSO were used.

[2] = tested on: K562 cells; assay: MTT cytotoxicity assay, K562; assay type: cell-based; details: Homo sapiens, 48 h, mean ± SD
Procedure: as §1

[3] = tested on: HUVEC (human umbilical vein endothelial cells); assay: MTT cytotoxicity assay, HUVEC; assay type: cell-based; details: 48 h, mean ± SD
Procedure: as §1

[4] = tested on: MOLT-4 cells; assay: MTT cytotoxicity assay, MOLT-4; assay type: cell-based; details: Homo sapiens, 48 h, mean ± SD
Procedure: as §1

[5] = tested on: K562 cells; assay: Annexin V/PI or 7-AAD flow cytometry of apoptosis, K562; assay type: cell-based, human; details: K562, 5× IC50 (3 10 µM, 6 5 µM, 5 5 µM), staurosporine 1 µM; different incubation times for 3, 6 and 5
Procedure: The phosphatidylserine on the extracellular side of cell membranes was quantified using an FITC Annexin V Apoptosis Detection Kit I (BD Pharmingen, San Diego, CA, USA) according to the manufacturer’s instruction. 10^6 cells were seeded on a 6-well plate (Nunc). […] The control cells were exposed to 1% DMSO or 1μM staurosporine. After treatment the cells were centrifuged at 700 rpm (120× g) for 5 min, washed twice with cold PBS and then resuspended in 1x binding buffer to a density of 10^6 cells/ml. 100 µL of the resuspended cells was stained in the dark with 5 μl of Annexin V-fluoroscein isothiocyanate (FITC) solution and 10 µL propidium iodide (PI) solution for 15 min at room temperature. The samples were then diluted with 400 μL of a binding buffer and within 1 h analyzed with a flow cytometer (BD FACSCalibur^TM, BD Biosciences, San Jose, CA, USA). After treatment, four populations of cells were assessed: (1) viable (neither apoptotic nor necrotic, Annexin V-FITC and PI negative), (2) apoptotic (Annexin V-FITC positive and PI negative), (3) late apoptotic (Annexin V-FITC and PI positive), and (4) necrotic (Annexin V-FITC negative and PI positive).
0.15 × 10^6 cells/ml were seeded on a 6-well plate (Nunclon, Thermo Fisher Scientific, Waltham, MA, USA). Following 24 h preincubation the cells were treated with either the compound or 1% DMSO (control) for 24 or 48 h. After indicated time, the cells were washed with cold PBS (w/o Mg^2+, Ca^2+), stained with Annexin V (FITC Annexin V Apoptosis Detection Kit with 7-aminoactinomycin D (7-AAD), Biolegend, San Diego, CA, USA) according to manufacturer instructions and analysed using BD FACSCalibur flow cytometer. Obtained Flow Cytometry Standard files were analyzed using BD FACSDiva Software (FACSDiva Version 6.1.3, Becton Dickinson Biosciences, San Jose, CA, USA). The experiment was performed three times in at least two technical replicates.

[6] = tested on: HeLa cells; details: 48 h, MTT, mean ± SD; cited from earlier work
[7] = tested on: K562 cells; details: 48 h, MTT, mean ± SD; cited from earlier work
[8] = tested on: HL-60 cells; details: 48 h, MTT, mean ± SD; cited from earlier work
[9] = tested on: HUVEC (human umbilical vein endothelial cells); details: 48 h, MTT, mean ± SD; cited from earlier work
[10] = tested on: CFPAC cells; assay: MTT cytotoxicity assay, CFPAC; assay type: cell-based; details: Homo sapiens, 48 h, mean ± SD
Procedure: as §1

[11] = biological target: ABC50 (Homo sapiens, UniProt Q8NE71); assay: Streptavidin-agarose pull-down from K562 cell lysate with LC-MS-MS/MS and Western blot identification; assay type: binding; parameters: endogenous in cells; host or cells: K562 cell lysate
Sequence of ABC50 (Q8NE71 whole entry): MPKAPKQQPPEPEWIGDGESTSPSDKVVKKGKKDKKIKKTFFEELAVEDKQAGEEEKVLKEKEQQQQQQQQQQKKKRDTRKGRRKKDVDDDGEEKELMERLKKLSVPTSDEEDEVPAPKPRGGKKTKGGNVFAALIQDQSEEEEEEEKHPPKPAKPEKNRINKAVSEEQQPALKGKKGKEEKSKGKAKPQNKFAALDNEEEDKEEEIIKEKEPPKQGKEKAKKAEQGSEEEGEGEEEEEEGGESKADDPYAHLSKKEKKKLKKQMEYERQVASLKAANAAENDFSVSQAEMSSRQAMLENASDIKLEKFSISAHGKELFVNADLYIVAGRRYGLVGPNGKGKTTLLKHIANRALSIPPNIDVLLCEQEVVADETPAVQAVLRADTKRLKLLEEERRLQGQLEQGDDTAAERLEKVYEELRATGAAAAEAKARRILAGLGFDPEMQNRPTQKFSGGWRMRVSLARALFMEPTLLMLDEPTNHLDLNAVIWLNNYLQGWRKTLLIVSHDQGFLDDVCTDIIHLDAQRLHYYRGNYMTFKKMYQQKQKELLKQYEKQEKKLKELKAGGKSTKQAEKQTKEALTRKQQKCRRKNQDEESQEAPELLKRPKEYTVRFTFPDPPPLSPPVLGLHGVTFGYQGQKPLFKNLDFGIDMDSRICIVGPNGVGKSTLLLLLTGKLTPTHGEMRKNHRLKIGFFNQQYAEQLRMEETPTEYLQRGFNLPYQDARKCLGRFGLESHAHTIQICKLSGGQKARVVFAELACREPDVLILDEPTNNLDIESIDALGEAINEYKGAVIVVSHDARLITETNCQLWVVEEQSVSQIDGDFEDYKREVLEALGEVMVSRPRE
Procedure: Cells were lysed in TBS buffer containing 1% Triton X-100 and Complete® protease inhibitor cocktail (Roche) for 15 min on ice with occasional vortexing. Insoluble material was centrifuged (12,000 rpm, 15 min, 4 °C) and supernatants were collected. Total protein concentration was measured with DC Protein Assay (Bio-Rad, Hercules, CA, USA). Cell lysates containing 30 µg of total protein were mixed with Laemli buffer supplemented with SDS and β-mercaptoethanol, denatured (10 min, 95 °C) and subjected to sodium dodecyl sulfate polyacrylamide gel electrophoresis (SDS-PAGE) electrophoresis (4% stacking and 10% resolving gels). Resolved proteins were electrotransferred (semi-dry, 90 min, 1.5 mA/cm^2) to a 0.45 µm nitrocellulose membrane (Thermo Scientific, Waltham, MA, USA). Membranes were blocked for 2 hours in TBST buffer (20 mM Tris-HCl pH 7.5, 0.9% NaCl, 0.1% Tween 20) containing 5% BSA (BioShop, Burlington, ON, Canada) and probed with primary antibodies (overnight at 4 °C) diluted in TBST buffer with 0.5% BSA. Tubulin served as a loading control for IB experiments. Anti IKZF3 (rabbit monoclonal, dilution 1:500), anti IKZF1 (rabbit polyclonal, dilution 1:500) were from Abcam. Anti IRF4 (rabbit polyclonal, dilution 1:500) were from Cell Signaling Technology. Anti α-tubulin (mouse monoclonal IgG, 1:1000) was from Sigma Aldrich. Anti ABC50 antibodies (mouse monoclonal ABC5H06, dilution 1:100) was from Abcam. After extensive washing with TBST buffer, membranes were probed with secondary goat anti-rabbit or goat anti-mouse HRP-conjugated IgG (1:5000 in TBST, Santa Cruz Biotech, Dallas, TX, USA) for 45 min at room temperature. Membranes were washed in TBST buffer and the chemiluminescent signal was developed with ECL Plus Western Blotting Substrate (Thermo Scientific) and visualized in Syngene G:Box detection system. Protein bands intensities were analysed using Image Quant (version 5.0, GE Healthcare Life Sciences, Pittsburgh, PA, USA).
300 nmoles of biotinylated 6b was added to 0.6 mL of the high capacity streptavidin agarose resin (Thermo Scientific, Waltham, MA, USA) equilibrated in 50% DMSO and incubated for 2 h (room temperature, gently mixing, total volume 0.7 mL). The K562 cell lysate was prepared in the buffer containing 0.5% NP-40 and supplemented with protease inhibitors coctail (Roche). Next, the beads with immobilized 6b were added to the K562 cell lysate (9 mg of total protein) and incubated for 2 h at 4 °C with gently mixing. As a control, K562 cell lysate incubated with the streptavidin agarose beads was used. After incubation the beads were centrifuged (2000 rpm, 2 min, 4 °C) and washed 6 times with 5 mL of lysis buffer. After the last wash, the beads were resuspended in Laemli buffer and denatured 10 min at 95 °C. Released proteins (40 µL/well) were separated by SDS-PAGE (4% stacking, 8% resolving gel) and silver stained with Pierce Silver Stain Kit (Thermo Scientific, Waltham, MA, USA). Bands of interest were cut out of the gel and digested with trypsin. Tryptic peptides were separated by liquid chromatography (LC) and analyzed by LC-MS-MS/MS with Orbitrap mass spectrometer (Thermo). The sequences of the MS/MS spectra were identified by correlation with the human protein sequence database (Sprot 2016_11, H.) using MASCOT software (version 2.6.2, Matrix Science Inc., Boston, MA, USA) (http://www.matrixscience.com/). The significance threshold was p < 0.05 and ions score or expect cut-off was 22.

Row | SMILES | IC50 [4] | IC50 [6] | IC50 [7] | IC50 [8] | IC50 [9] | also measured
1 | NCC(O)CN1C(=O)C2C(C1=O)C1(c3ccccc3)CC2(c2ccccc2)C(c2ccccc2)=C1c1ccccc1 (stereo not shown) [Compound 6a, 4-[-3-(amino)-2-hydroxypropyl]-1,7,8,9-tetraphenyl-4-azatricyclo[5.2.1.0^2,6]dec-8-ene-3,5-dione] | 5 ± 0.59 µM | – | – | – | – | IC50 [1]: 20 ± 1.9 µM; IC50 [2]: 12 ± 1.5 µM; IC50 [3]: > 100 µM
2 | CN[C@@H]1C[C@H]2O[C@@](C)([C@@H]1OC)n1c3ccccc3c3c4c(c5c6ccccc6n2c5c31)C(=O)NC4 [staurosporine, reference compound] | – | – | – | – | – | apoptotic cells, early (LR) and late (UR) [5]: about 25%
3 | CNC(=O)c1cc(Oc2ccc(NC(=O)Nc3ccc(Cl)c(C(F)(F)F)c3)cc2)ccn1 [sorafenib, reference compound] | – | 20 ± 2.6 µM | 3 ± 0.3 µM | 15 ± 0.6 µM | 20 ± 4.1 µM | –
4 | CCC12C(=O)C(CC)(C(c3ccccc3)=C1c1ccccc1)C1C(=O)N(CCCN(C)C)C(=O)C12 (stereo not shown) [Compound 4] | 30 ± 2 µM | > 100 µM | 8 ± 0.53 µM | > 100 µM | > 100 µM | IC50 [10]: > 1 mM
5 | CC(C)C[C@H](NC(=O)[C@H](Cc1ccccc1)NC(=O)c1cnccn1)B(O)O [bortezomib, reference compound] | – | 0.05 ± 0.01 µM | 0.04 ± 0.01 µM | 0.3 ± 0.1 µM | < 0.01 µM | –
6 | CCC12C(=O)C(CC)(C(c3ccccc3)=C1c1ccccc1)C1C(=O)N(CCN(C)C)C(=O)C12 (stereo not shown) [Compound 1] | 20 ± 2.7 µM | > 100 µM | 10 ± 0.59 µM | > 100 µM | > 100 µM | IC50 [10]: > 1 mM
7 | O=C(CCCCC1SCC2NC(=O)NC21)NCC(O)CN1C(=O)C2C(C1=O)C1(c3ccccc3)CC2(c2ccccc2)C(c2ccccc2)=C1c1ccccc1 (stereo not shown) [Compound 6b] | 1.5 ± 0.06 µM | – | – | – | – | IC50 [1]: 64 ± 10 µM; IC50 [2]: 7 ± 1.2 µM; IC50 [3]: 3.8 ± 0.22 µM; Description of protein identified, band 1 ([11]; K562 lysate pull-down, SDS-PAGE band No. 1, LC-MS-MS/MS): Talin-1; Description of protein identified, band 2 ([11]; K562 lysate pull-down, SDS-PAGE band No. 2, LC-MS-MS/MS): ATP-binding cassette sub-family F member 1 (ABCF1 or ABC50); Description of protein identified, band 3 ([11]; K562 lysate pull-down, SDS-PAGE band No. 3, LC-MS-MS/MS): ABC50; Description of protein identified, band 4 ([11]; K562 lysate pull-down, SDS-PAGE band No. 4, LC-MS-MS/MS): ABC50; Description of protein identified, band 5 ([11]; K562 lysate pull-down, SDS-PAGE band No. 5, LC-MS-MS/MS): ABC50; Description of protein identified, band 6 ([11]; K562 lysate pull-down, SDS-PAGE band No. 6, LC-MS-MS/MS): ABC50; protein identified by mass spectrometry in pulled-down bands ([11]; K562 lysate, immobilized on streptavidin-agarose, five out of six bands): ABC50 protein was identified and significantly enriched; Western blot analysis of pull-down material for ABC50 ([11]; K562 lysate, mouse monoclonal anti ABC50 antibodies): confirmed the presence of ABC50
8 | CCc1c2c(nc3ccc(OC(=O)N4CCC(N5CCCCC5)CC4)cc13)-c1cc3c(c(=O)n1C2)COC(=O)[C@]3(O)CC [irinotecan, reference compound] | – | 200 ± 11 µM | 10 ± 0.9 µM | 70 ± 2.5 µM | 30 ± 3.7 µM | –
9 | COc1cccc2c1C(=O)c1c(O)c3c(c(O)c1C2=O)C[C@@](O)(C(=O)CO)C[C@@H]3O[C@H]1C[C@H](N)[C@H](O)[C@H](C)O1 [doxorubicin, reference compound] | – | 0.5 ± 0.01 µM | 0.15 ± 0.01 µM | 0.15 ± 0.03 µM | 0.1 ± 0.03 µM | –
10 | CCN(CC)CCN1C(=O)C2C(C1=O)C1(CC)C(=O)C2(CC)C(c2ccccc2)=C1c1ccccc1 (stereo not shown) [Compound 2] | 30 ± 2.3 µM | > 100 µM | 4.5 ± 0.29 µM | > 100 µM | > 100 µM | IC50 [10]: > 1 mM
11 | Nc1ccn([C@@H]2O[C@H](CO)[C@@H](O)[C@@H]2O)c(=O)n1 [cytarabine, reference compound] | – | > 1000 µM | 300 ± 19 µM | 300 ± 18 µM | > 1000 µM | –
